Source: US20240132484A1, “BROAD SPECTRUM ANTIVIRAL COMPOUNDS TARGETING THE SKI COMPLEX” (priority 2020, published 2024)
Several values for one entry are separate records, joined by “and”; a condition that tells them apart may be missing. Equal entries are not always repeated. Where two headings read alike, the source gives them in different places.

Key:
SARS2 = format: cell-based, SARS-CoV-2; conditions: for Infection Data: Percentage Infection Relative to Appropriate DMSO Control: avg background subtraction, replicate wells; for Infection Data: Average, Mean / Infection Data, Average, Mean: average of Exp 1-3 (SMW475, SMW477, SMW478); for Infection Data: Average, Mean: n 9; for Percentage Inhibition Average 1 μM / Screening data (Relative infection to DMSO controls) Average 1 μM: SARS2, 1 μM; for Screening data (Relative infection to DMSO controls) Average 1 μM / Screening data (Relative infection to DMSO controls) Average 5 μM / Screening data (Relative infection to DMSO controls) Average 10 μM / Screening data (Relative infection to DMSO controls) Average 25 μM / Screening data (Relative infection to DMSO controls) Average 50 μM / Average (relative infection to DMSO over the 5 tested concentrations): 100=DMSO control; for Percentage Inhibition Average 5 μM / Screening data (Relative infection to DMSO controls) Average 5 μM: SARS2, 5 μM; for Percentage Inhibition Average 10 μM / Screening data (Relative infection to DMSO controls) Average 10 μM: SARS2, 10 μM; for Percentage Inhibition Average 25 μM / Screening data (Relative infection to DMSO controls) Average 25 μM: SARS2, 25 μM; for Percentage Inhibition Average 50 μM / Screening data (Relative infection to DMSO controls) Average 50 μM: SARS2, 50 μM; for Average (relative infection to DMSO over the 5 tested concentrations): SARS2, average over 1 to 50 uM; for Percentage Infection Relative to Appropriate DMSO Control with Avg Background Subtraction: Greiner Celigo plates
cells (nuclei count) = conditions: for Toxicity Data: Average, Mean / Toxicity Data, Average, Mean: average of Exp 1-3 (SMW475, SMW477, SMW478); for Toxicity Data: Average, Mean: n 9; for Relative cell count to DMSO controls, Average 1 μM / Relative cell count to DMSO controls, Average 5 μM / Relative cell count to DMSO controls, Average 10 μM / Relative cell count to DMSO controls, Average 25 μM / Relative cell count to DMSO controls, Average 50 μM: toxicity data, 100=DMSO control; for Relative cell count to DMSO controls, Average (for correlation analysis): average value over the 5 tested concentrations (1 to 50 uM)

## Cc1cc(CN(CCN(C)C)Cc2ccncc2)sc1Br [SILCS14]
SARS2; 1 uM, Exp 1 (SMW475)
  Infection Data: Percentage Infection Relative to Appropriate DMSO Control: 112.00% and 92.09% and 122.87%
SARS2; 1 uM, Exp 2 (SMW477)
  Infection Data: Percentage Infection Relative to Appropriate DMSO Control: 91.97% and 93.96% and 99.35%
SARS2; 1 uM, Exp 3 (SMW478)
  Infection Data: Percentage Infection Relative to Appropriate DMSO Control: 112.26% and 106.71% and 118.52%
SARS2; 1 uM
  Infection Data: Average, Mean: 105.53%
SARS2; 5 uM, Exp 1 (SMW475)
  Infection Data: Percentage Infection Relative to Appropriate DMSO Control: 112.88% and 98.55% and 115.50%
SARS2; 5 uM, Exp 2 (SMW477)
  Infection Data: Percentage Infection Relative to Appropriate DMSO Control: 105.78% and 98.21% and 86.55%
SARS2; 5 uM, Exp 3 (SMW478)
  Infection Data: Percentage Infection Relative to Appropriate DMSO Control: 109.15% and 113.38% and 106.22%
SARS2; 5 uM
  Infection Data: Average, Mean: 105.13%
SARS2; 10 uM, Exp 1 (SMW475)
  Infection Data: Percentage Infection Relative to Appropriate DMSO Control: 92.53% and 120.55% and 101.62%
SARS2; 10 uM, Exp 2 (SMW477)
  Infection Data: Percentage Infection Relative to Appropriate DMSO Control: 84.89% and 81.65% and 69.99%
SARS2; 10 uM, Exp 3 (SMW478)
  Infection Data: Percentage Infection Relative to Appropriate DMSO Control: 92.27% and 101.81% and 99.27%
SARS2; 10 uM
  Infection Data: Average, Mean: 93.84%
SARS2; 25 uM, Exp 1 (SMW475)
  Infection Data: Percentage Infection Relative to Appropriate DMSO Control: 11.84% and 13.81% and 11.60%
SARS2; 25 uM, Exp 2 (SMW477)
  Infection Data: Percentage Infection Relative to Appropriate DMSO Control: 19.70% and 19.93% and 22.53%
SARS2; 25 uM, Exp 3 (SMW478)
  Infection Data: Percentage Infection Relative to Appropriate DMSO Control: 9.11% and 11.10% and 12.21%
SARS2; 25 uM
  Infection Data: Average, Mean: 14.65%
SARS2; 50 uM, Exp 1 (SMW475)
  Infection Data: Percentage Infection Relative to Appropriate DMSO Control: 2.09% and 3.52% and 1.22%
SARS2; 50 uM, Exp 2 (SMW477)
  Infection Data: Percentage Infection Relative to Appropriate DMSO Control: 1.91% and −0.25% and −0.24%
SARS2; 50 uM, Exp 3 (SMW478)
  Infection Data: Percentage Infection Relative to Appropriate DMSO Control: 3.06% and 0.62% and 3.25%
SARS2; 50 uM
  Infection Data: Average, Mean: 1.69%
SARS2
  Percentage Inhibition Average 1 μM: −5.53%
  Screening data (Relative infection to DMSO controls) Average 1 μM: 105.53
  Percentage Inhibition Average 5 μM: −5.13%
  Screening data (Relative infection to DMSO controls) Average 5 μM: 105.13
  Percentage Inhibition Average 10 μM: 6.16%
  Screening data (Relative infection to DMSO controls) Average 10 μM: 93.84
  Percentage Inhibition Average 25 μM: 85.35%
  Screening data (Relative infection to DMSO controls) Average 25 μM: 14.65
  Percentage Inhibition Average 50 μM: 98.31%
  Screening data (Relative infection to DMSO controls) Average 50 μM: 1.69
  Average (relative infection to DMSO over the 5 tested concentrations): 64.17
Cells (nuclei count); 1 uM
  Toxicity Data: Average, Mean: 105.49%
Cells (nuclei count)
  Relative cell count to DMSO controls, Average 1 μM: 105.49
  Relative cell count to DMSO controls, Average 5 μM: 103.93
  Relative cell count to DMSO controls, Average 10 μM: 108.29
  Relative cell count to DMSO controls, Average 25 μM: 139.75
  Relative cell count to DMSO controls, Average 50 μM: 16.8
  Relative cell count to DMSO controls, Average (for correlation analysis): 94.85
Cells (nuclei count); 5 uM
  Toxicity Data: Average, Mean: 103.93%
Cells (nuclei count); 10 uM
  Toxicity Data: Average, Mean: 108.29%
Cells (nuclei count); 25 uM
  Toxicity Data: Average, Mean: 139.75%
Cells (nuclei count); 50 uM
  Toxicity Data: Average, Mean: 16.80%

## CCN(CC)CCN(Cc1ccccn1)Cc1ccc(C)o1 [SILCS36]
SARS2; Exp 1 (SMW475), 1 uM
  Percentage Infection Relative to Appropriate DMSO Control with Avg Background Subtraction: 112.32% and 102.95% and 77.60%
SARS2; Exp 1 (SMW475), 5 uM
  Percentage Infection Relative to Appropriate DMSO Control with Avg Background Subtraction: 103.78% and 96.97% and 70.88%
SARS2; Exp 1 (SMW475), 10 uM
  Percentage Infection Relative to Appropriate DMSO Control with Avg Background Subtraction: 100.05% and 88.33% and 67.06%
SARS2; Exp 1 (SMW475), 25 uM
  Percentage Infection Relative to Appropriate DMSO Control with Avg Background Subtraction: 42.48% and 40.16% and 33.52%
SARS2; Exp 2 (SMW477), 1 uM
  Percentage Infection Relative to Appropriate DMSO Control with Avg Background Subtraction: 136.49% and 133.25% and 131.77%
SARS2; Exp 2 (SMW477), 5 uM
  Percentage Infection Relative to Appropriate DMSO Control with Avg Background Subtraction: 140.43% and 143.68% and 122.53%
SARS2; Exp 2 (SMW477), 10 uM
  Percentage Infection Relative to Appropriate DMSO Control with Avg Background Subtraction: 111.26% and 112.57% and 100.88%
SARS2; Exp 2 (SMW477), 25 uM
  Percentage Infection Relative to Appropriate DMSO Control with Avg Background Subtraction: 70.58% and 67.21% and 40.18%
SARS2; Exp 3 (SMW478), 1 uM
  Percentage Infection Relative to Appropriate DMSO Control with Avg Background Subtraction: 116.69% and 121.41% and 101.10%
SARS2; Exp 3 (SMW478), 5 uM
  Percentage Infection Relative to Appropriate DMSO Control with Avg Background Subtraction: 103.27% and 118.27% and 106.75%
SARS2; Exp 3 (SMW478), 10 uM
  Percentage Infection Relative to Appropriate DMSO Control with Avg Background Subtraction: 99.80% and 128.16% and 117.51%
SARS2
  Percentage Inhibition Average 1 μM: −14.84%
  Screening data (Relative infection to DMSO controls) Average 1 μM: 114.84
  Percentage Inhibition Average 5 μM: −11.84%
  Screening data (Relative infection to DMSO controls) Average 5 μM: 111.84
  Percentage Inhibition Average 10 μM: −2.85%
  Screening data (Relative infection to DMSO controls) Average 10 μM: 102.85
  Percentage Inhibition Average 25 μM: 42.56%
  Screening data (Relative infection to DMSO controls) Average 25 μM: 57.44
  Percentage Inhibition Average 50 μM: 72.63%
  Screening data (Relative infection to DMSO controls) Average 50 μM: 27.37
  Average (relative infection to DMSO over the 5 tested concentrations): 82.87
SARS2; n 9, 1 uM
  Infection Data, Average, Mean: 114.84%
SARS2; n 9, 5 uM
  Infection Data, Average, Mean: 111.84%
SARS2; n 9, 10 uM
  Infection Data, Average, Mean: 102.85%
SARS2; n 9, 25 uM
  Infection Data, Average, Mean: 57.44%
SARS2; n 9, 50 uM
  Infection Data, Average, Mean: 27.37%
Cells (nuclei count)
  Relative cell count to DMSO controls, Average 1 μM: 87.6
  Relative cell count to DMSO controls, Average 5 μM: 84.91
  Relative cell count to DMSO controls, Average 10 μM: 88.15
  Relative cell count to DMSO controls, Average 25 μM: 91.83
  Relative cell count to DMSO controls, Average 50 μM: 63.21
  Relative cell count to DMSO controls, Average (for correlation analysis): 83.14
Cells (nuclei count); n 9, 1 uM
  Toxicity Data, Average, Mean: 87.60%
Cells (nuclei count); n 9, 5 uM
  Toxicity Data, Average, Mean: 84.91%
Cells (nuclei count); n 9, 10 uM
  Toxicity Data, Average, Mean: 88.15%
Cells (nuclei count); n 9, 25 uM
  Toxicity Data, Average, Mean: 91.83%
Cells (nuclei count); n 9, 50 uM
  Toxicity Data, Average, Mean: 63.21%

## CN(C)CCN(Cc1ccsc1)Cc1ccc(CO)o1 [SILCS9]
SARS2
  Percentage Infection Relative to DMSO Control, Average, Mean: 95.98% and 111.45% and 120.58% and 120.66% and 113.21%
  SARS2 antiviral activity: significant loss of activity
  Percentage Inhibition Average 1 μM: −13.21%
  Screening data (Relative infection to DMSO controls) Average 1 μM: 113.21
  Percentage Inhibition Average 5 μM: −20.66%
  Screening data (Relative infection to DMSO controls) Average 5 μM: 120.66
  Percentage Inhibition Average 10 μM: −20.58%
  Screening data (Relative infection to DMSO controls) Average 10 μM: 120.58
  Percentage Inhibition Average 25 μM: −11.45%
  Screening data (Relative infection to DMSO controls) Average 25 μM: 111.45
  Percentage Inhibition Average 50 μM: 4.02%
  Screening data (Relative infection to DMSO controls) Average 50 μM: 95.98
  Average (relative infection to DMSO over the 5 tested concentrations): 112.38
Cells (nuclei count)
  Relative cell count to DMSO controls, Average 1 μM: 105.37
  Relative cell count to DMSO controls, Average 5 μM: 103.56
  Relative cell count to DMSO controls, Average 10 μM: 111.19
  Relative cell count to DMSO controls, Average 25 μM: 92.21
  Relative cell count to DMSO controls, Average 50 μM: 60.67
  Relative cell count to DMSO controls, Average (for correlation analysis): 94.60
Cells (nuclei count); Average of Exp 1-3, 1 uM
  Toxicity Data, Average, Mean (relative to DMSO control): 105.37%
Cells (nuclei count); Average of Exp 1-3, 5 uM
  Toxicity Data, Average, Mean (relative to DMSO control): 103.56%
Cells (nuclei count); Average of Exp 1-3, 10 uM
  Toxicity Data, Average, Mean (relative to DMSO control): 111.19%
Cells (nuclei count); Average of Exp 1-3, 25 uM
  Toxicity Data, Average, Mean (relative to DMSO control): 92.21%
Cells (nuclei count); Average of Exp 1-3, 50 uM
  Toxicity Data, Average, Mean (relative to DMSO control): 60.67%
